According to patent US20260076974A1, “COMPOSITIONS FOR PREVENTING AND TREATING INFECTION COMPRISING AN ARTIFICIAL SWEETENER” (Brunel University London, priority 2022, published 2026):
Like-named read-outs stand apart in the source and are kept apart here.

Experiments:
A. baumannii AB5075 [1] = test system: A. baumannii AB5075; parameters: species or system Acinetobacter baumannii; details: ace-K dressing applied for 1 hour
Procedure: In this model, porcine skin was either burnt or lacerated and the wound infected with A. baumannii AB5075 and left for 3.5 hours to allow a biofilm to form. The dressing was applied for 1 hour and viable cells were collected after treatment. […] Samples were tested in biological triplicate with technical quadruplets.
(8% (w/w)), potassium tetraborate (3% (w/w)), and PVA (3% ((w/w)) were added into a beaker and mixed with deionized water. The mixture was placed in a water bath and heated at 80° C. for three hours with watch glass while being swirled with a stirring rod every 1 hour. Once hydrogels had been obtained, they were placed in a petri dish with custom-made moulds.

P. aeruginosa PA14 [2] = assay: Growth inhibition assay in nutrient medium (OD600); type: cell-based, Pseudomonas aeruginosa
A. baumannii AB5075 [3] = assay: Growth inhibition assay in LB medium (OD600); type: cell-based, Acinetobacter baumannii
P. aeruginosa PA14 [4] = assay: Crystal violet biofilm formation assay / minimum biofilm inhibition concentration; type: cell-based, Pseudomonas aeruginosa
Procedure: (§1) Biofilm formation is linked to 80% of hospital-associated infections and is a major factor in the routine failure of antibiotic therapy.
(§2) All samples were exposed to the artificial sweeteners in LB medium for 19 hours before crystal violet biofilm assay was performed. […] The data present the mean of three biological replicates±SD. *p≤0.05, *p≤0.001 versus the bacterial growth in control samples.
(§3) All samples were exposed to artificial sweeteners for 19 hours before crystal violet biofilm assay was performed.

A. baumannii [5] = assay: as above; type: cell-based, Acinetobacter baumannii
Procedure: as §1, §2, §3

[6] = test system: A. baumannii gene expression; details: |logFC|>1 and p<.05
Procedure: Cells were spun down and washed in RNAlater to preserve mRNA. RNA was isolated using a Qiagen RNAeasy Kit with column DNAase digestion. RNA integrity was determined using a Bioanalyzer. Samples were further processed for RNA sequencing on an Illumina MiSeq with 12 million reads per sample. Quality control and adapter trimming was performed with bcl2fastq.

A. baumannii [7] = test system: A. baumannii
Excerpt: Motility is a central facet of bacterial virulence and facilitates bacterial dissemination to the blood stream or other sites within an infected host. […] To validate the gene expression data, we performed twitching assays at a range of different concentrations.

A. baumannii AB5075 [8] = details: established 18 hour biofilm, 8.85% ace-K, 24 hours
Procedure: (§4) Plates were incubated for 18 hours at 37° C. and 180 rpm to allow biofilms to form. Following incubation, growth medium was removed from the wells and biofilms were washed three times with 200 μL of sterile PBS to remove any unbound planktonic cells. […] Plates were incubated for a further 24 hours at 37° C. and 180 rpm. Following this treatment biofilms were stained with 0.1% crystal violet as detailed above. Reduction in biofilm was represented as a percentage reduction compared to the control.
(§5) To assess the ability of artificial sweeteners to disperse biofilms, overnight cultures were diluted in 96-well plates to OD600 0.5-0.1 in growth medium. Plates were incubated for 18 h at 37° C. and 180 rpm to allow biofilms to form. Following incubation growth medium was removed and wells washed three times with 200 μl of sterile PBS to remove any unattached cells. Fresh growth medium supplemented with artificial sweetener or an appropriate vehicle control was added to the wells. Plates were incubated for a further 24 h at 37° C. and 180 rpm. Following this treatment biofilms were stained with 0.1% crystal violet as detailed above. Biofilm dispersal was represented as a percentage reduction compared with the control.

P. aeruginosa PA14 [9] = details: established 18 hour biofilm, 8.85% ace-K, 24 hours
Procedure: as §4, §5

A. baumannii cells = details: live cell imaging over time
Excerpt: (§6) To visualise the localisation of these membrane bulges and to gain insight into the contents of the bulges, an E. coli MG1655 strain with labelled mCherry-Fis and CFP-FtsZ was used (FIG. 62CD). Fis is a small DNA-binding protein that binds to a large number of regions of the chromosome, allowing the visualisation of the […] in living cells. FtsZ is a component of the Z ring, showing future cell division sites.

E. coli NCTC 13476 = details: live cell imaging over time
Excerpt: as §6

[10] = test system: P. aeruginosa colony biofilms
[11] = test system: A. baumannii colony biofilms
Staphylococcus aureus = details: […] ace-K versus LB control
[12] = test system: Stenotrophomonas maltophilia
Enterococcus faecalis = details: […] ace-K versus LB control
A. baumannii AB5075 [13] = test system: A. baumannii AB5075
PpilA promoter = details: 0, […], 0.66% or […] ace-K, 2 h
Procedure: The expression from the PpilA promoter was measured using a miniTn7T-based insertion bearing a PpilA::gfp transcriptional fusion (AB5075/miniTn7T-zeo-pilA::gfpmut3). An AB5075/miniTn7T-zeo-gfpmut3 strain, bearing the empty miniTn7T backbone, was used as a control. […] Cultures were incubated for 2 h at 37° C., 180 rpm. Then, samples were withdrawn from the cultures, washed with PBS and eventually resuspended in PBS. Two technical repeats of each sample were allocated in a 96-well plate and their OD600 and GFP fluorescence (485 nm excitation, 535 nm emission) were measured. The fluorescence readings were normalised by their respective OD600 and the baseline fluorescence obtained from the empty transposon control was subtracted from that obtained with the strain bearing the PpilA::gfpmut3 the promoter fusion measurements.

A. baumannii AB5075 [14] = details: […] ace-K (sub-MIC), two hours, compared to untreated control
Procedure: Cultures were incubated at 37° C. and 180 rpm shaking for two hours. Following incubation 10 μL of a 1 mg/mL DAPI solution and 10 μL of a 5 mg/mL solution of Nile Red were added to each flask before returning to the incubator for 30 mins. Once stained, cultures were centrifuged at 5000 rpm for five minutes and the supernatant discarded. Pellets were resuspended in 10 ml of sterile 4% formaldehyde in PBS and incubated in the dark for 30 mins to fix. Once fixed, samples were centrifuged at 5000 rpm and pellets were washed twice with 10 mL sterile PBS. After washing pellets were resuspended in 10 ml of sterile PBS and 10 μL of the cell suspension was spotted onto a glass slide and allowed to air dry in the dark. Three spots were prepared per flask.

[15] = LB with sweetener plus Mg2+ and Ca2+
[16] = 3% (w/v) sucralose, […] (w/v) ace-K, LB medium, 19 hours
[17] = submerged in 8.85% (w/v) ace-K solution for 1 hour
[18] = surgical gauze soaked in 8.85% ace-K, 1 hour, compared to water-soaked dressing
[19] = LB with ace-K plus Mg2+ and Ca2+
[20] = in the presence of divalent cations (CaCl2 2 mM and MgSO4 1 mM)

Excerpt for Klebsiella pneumoniae: N=3 biological triplicate, each with technical triplicates).

CC1=CC(=O)[N-]S(=O)(=O)O1.[K+] [ace-K, potassium salt of 6-methyl-1,2,3-oxathiazine-4 (3H)-one 2,2-dioxide]
log reduction in viable cells versus the water control (A. baumannii AB5075 [1]; burn model): 2.16 log
log reduction in viable cells versus the water control (A. baumannii AB5075 [1]; laceration model): 0.5 log
concentration showing significant / effective growth inhibition (P. aeruginosa PA14 [2]): ≥ 0.89%
effect of Mg2+ and Ca2+ cation supplementation on the growth inhibitory effect (P. aeruginosa PA14 [2]; [15]): at least partially reverse
bacterial growth in the presence of sweetener (P. aeruginosa PA14 [2]; […] sweetener, 19 hours, 37° C.): inhibit the growth
concentration at which growth inhibition plateaus; no growth above (P. aeruginosa PA14 [2]; ace-K 0.09-7.08%): around 5%
concentration showing significant / effective growth inhibition (A. baumannii AB5075 [3]): ≥ 0.89%
effect of Mg2+ and Ca2+ cation supplementation on the growth inhibitory effect (A. baumannii AB5075 [3]; [15]): at least partially reverse
bacterial growth in the presence of sweetener (A. baumannii AB5075 [3]; […] sweetener, 19 hours, LB medium): inhibit the growth
concentration at which growth inhibition plateaus; no growth above (A. baumannii AB5075 [3]; ace-K 0.09-7.08%): around 5%
biofilm formation (P. aeruginosa PA14 [4]; [16]): significantly inhibit biofilm formation
concentration resulting in almost complete abolition of biofilm formation (P. aeruginosa PA14 [4]; 19 hours exposure): 1.77%
concentration with significant impact on / inhibition of biofilm formation (A. baumannii [5]): 0.09%
biofilm formation (A. baumannii [5]; [16]): significantly inhibit biofilm formation
number of genes significantly differentially expressed [6]: 464 genes
concentration with significant reduction in bacterial twitching motility (A. baumannii [7]): ≥ 0.33%
twitching motility over increasing concentrations (A. baumannii [7]; AB5075, ace-K): dose-dependent decrease
twitching motility over increasing concentrations (A. baumannii [7]; strains AB0057 and BAA 747, ace-K): dose-dependent decrease
reduction of total biofilm biomass compared to the control (A. baumannii AB5075 [8]): 48.8%
reduction of total biofilm biomass compared to the control (P. aeruginosa PA14 [9]): 69.7%
cell morphology upon ace-K exposure (A. baumannii cells): stop dividing and lose structural integrity, swelling in size rapidly
cell morphology upon ace-K exposure (E. coli NCTC 13476): filamented, extending to many times their original size before eventually, forming characteristic membrane bulges and ultimately lysing
number of viable bacteria within the biofilm after ace-K wash [10, 17]: significant reduction
bacteria numbers after ace-K augmented dressing [10, 18]: significant reductions
number of viable bacteria within the biofilm after ace-K wash [11, 17]: significant reduction
bacteria numbers after ace-K augmented dressing [11, 18]: significant reductions
effect of Mg2+ and Ca2+ cation supplementation on the growth inhibitory effect (E. coli; [19]): at least partially reverse
growth in LB including ace-K (E. coli; […] ace-K versus LB control): significantly inhibits the growth
effect of Mg2+ and Ca2+ cation supplementation on the growth inhibitory effect (Klebsiella pneumoniae; [19]): at least partially reverse
growth in LB including ace-K (Klebsiella pneumoniae; […] ace-K versus LB control): significantly inhibits the growth
growth in LB including ace-K (Staphylococcus aureus): minor reduction in growth in the presence of ace-K, but this was not significant
effect of Mg2+ and Ca2+ cation supplementation on the growth inhibitory effect [12, 19]: at least partially reverse
growth in LB including ace-K ([12]; […] ace-K versus LB control): significantly inhibits the growth
growth in LB including ace-K (Enterococcus faecalis): significantly inhibits the growth
effect of Mg2+ and Ca2+ cation supplementation on the growth inhibitory effect (Enterobacter cloacae; [19]): at least partially reverse
growth in LB including ace-K (Enterobacter cloacae; […] ace-K versus LB control): significantly inhibits the growth
cell viability (A. baumannii AB5075 [13]; in the presence of cations when supplementing with ace-K): not affected
concentration reaching transformation abolition (A. baumannii AB5075 [13]; [20]): ≥ 0.66%
concentration with significant drop in transformability (A. baumannii AB5075 [13]; [20]): 0.33%
concentration at which transformation is completely abolished (A. baumannii AB5075 [13]; without added cations): ≥ 0.66%
pilA expression (GFP fluorescence normalised by OD600) (PpilA promoter): clear dose dependent response
nuclear dye uptake (A. baumannii AB5075 [14]): significant increases
